System: A. castellanii trophozoites
Experiment: DNA-agarose gel electrophoresis of gDNA of treated trophozoites
Assay type: cell-based, Acanthamoeba castellanii
Conditions: 18.75 μg/ml after 96 h
Method: Genomic deoxynucleic acids (gDNA) from 10^8 A. castellanii trophozoites (treated with and without QAC) were extracted from cells harvested by centrifugation (850×g, 10 min), lysed with UNSET buffer (8M urea, 150 μM NaCl, 2% SDS, […] ethylenediaminetetraacetic acid (EDTA), […] Tris-HCl, pH 7.5) and the DNA extracted with phenol-chloroform (1:1 v/v). The biphasic suspension with DNA enriched on the […] was centrifuged (12,000×g for 15 min, 4° C.) for clear separation and transferred to a new microcentrifuge tube. The DNA was precipitated with cold ethanol (100%, v/v) and 0.3M sodium acetate, washed twice with 70% (v/v) ethanol (12,000×g for 10 min, 4° C.), air dried and resuspended in distilled water.

CCCCCCCCCCCCCCCCCC[N+](C)(C)C.[Br-] [QAC18, octadecyltrimethyl ammonium bromide]
Fragmented DNA profile that depicts death via apoptosis: not observed

Reference: patent US20230102836A1, “Amoebicidal Compositions for Contact Lens Solutions” (University of the West of Scotland, priority 2019, published 2023)
